Measured values reported in patent US8952024B2, “Herbicidal pyrimidone derivatives” (E I du Pont de Nemours and Company, priority 2009, dated 2015).
Read-outs that look alike come from different tables or passages of the source.

Tests used:
Test in all cases: Test B pre-/postemergence plant response
Assay type in all cases: in vivo
[1] = tested on: goosegrass (Eleusine indica); settings: for pest or weed control at 31 g/ha: 31 g ai/ha; for pest or weed control at 125 g/ha: 125 g ai/ha
Procedure, shortened: (§1)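 Seeds sown in loam–sand blend were treated preemergence, and plants at 2–18 cm (1- to 4-leaf stage) in peat-based medium were treated postemergence; compounds were formulated in non-phytotoxic solvent with surfactant. After 13–15 days in greenhouse, response was visually rated against controls, 0 (no effect) to 100 (complete control).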

[2] = tested on: giant foxtail (Setaria faberii); settings: for pest or weed control at 31 g/ha: 31 g ai/ha; for pest or weed control at 125 g/ha: 125 g ai/ha
Procedure, shortened: as §1

[3] = tested on: morningglory (Ipomoea coccinea)
Procedure, shortened: as §1

[4] = tested on: green foxtail (Setaria viridis); settings: for pest or weed control at 31 g/ha: 31 g ai/ha; for pest or weed control at 125 g/ha: 125 g ai/ha
Procedure, shortened: as §1

kochia (Kochia scoparia) = settings: for pest or weed control at 31 g/ha: 31 g ai/ha; for pest or weed control at 125 g/ha: 125 g ai/ha
Procedure, shortened: as §1

[5] = tested on: wheat (Triticum aestivum)
Procedure, shortened: as §1

[6] = 62 g ai/ha, postemergence, 0 is no effect, 100 is complete control, 13 to 15 days
[7] = Preemergence, 250 g ai/ha, 0 to 100 scale

O=C1CCCC(O)=C1C(=O)c1cnc(-c2cccnc2)n(-c2ccccc2)c1=O [Compound 113, 5-[(2-hydroxy-6-oxo-1-cyclohexen-1-yl)carbonyl]-3-phenyl-2-(3-pyridinyl)-4(3H)-pyrimidone]
Goosegrass plant response rating (0 to 100 scale) [1, 6]: 75 | pest or weed control at 31 g/ha ([1]; Eleusine indica, post-emergence, postemergence, scale 0 to 100, 0 is no effect, 100 is complete control, read-out: Plant response rating, Goosegrass): 70% | pest or weed control at 125 g/ha ([1]; Eleusine indica, post-emergence, Postemergence, scale 0 to 100 (0 no effect, 100 complete control), read-out: Plant response rating, Goosegrass): 85% | pest or weed control at 250 g/ha ([1]; Eleusine indica, post-emergence, Postemergence, 250 g ai/ha, scale 0 to 100 (0 no effect, 100 complete control), read-out: Plant response rating, Goosegrass): 90% | pest or weed control at 31 g/ha ([1]; Eleusine indica, pre-emergence, Preemergence, scale 0 to 100 (0 no effect, 100 complete control), read-out: Plant response rating, Goosegrass): 75% | pest or weed control at 62 g/ha ([1]; Eleusine indica, pre-emergence, Preemergence, 62 g ai/ha, scale 0 to 100, 0 no effect, 100 complete control, read-out: Plant response rating, Goosegrass): 90% | pest or weed control at 125 g/ha ([1]; Eleusine indica, pre-emergence, Preemergence, scale 0 to 100, 0 no effect, 100 complete control, read-out: Plant response rating, Goosegrass): 100% | Goosegrass plant response rating [1, 7]: 100 | Foxtail, Giant plant response rating (0 to 100 scale) [2, 6]: 85 | Foxtail, Giant plant response rating [2, 7]: 85 | pest or weed control at 31 g/ha ([2]; Setaria faberi, post-emergence, postemergence, scale 0 to 100, 0 is no effect, 100 is complete control, read-out: Plant response rating, Foxtail, Giant): 80% | pest or weed control at 125 g/ha ([2]; Setaria faberi, post-emergence, Postemergence, scale 0 to 100 (0 no effect, 100 complete control), read-out: Plant response rating, Foxtail, Giant): 90% | pest or weed control at 250 g/ha ([2]; Setaria faberi, post-emergence, Postemergence, 250 g ai/ha, scale 0 to 100 (0 no effect, 100 complete control), read-out: Plant response rating, Foxtail, Giant): 95% | pest or weed control at 31 g/ha ([2]; Setaria faberi, pre-emergence, Preemergence, scale 0 to 100 (0 no effect, 100 complete control), read-out: Plant response rating, Foxtail, Giant): 5% | pest or weed control at 62 g/ha ([2]; Setaria faberi, pre-emergence, Preemergence, 62 g ai/ha, scale 0 to 100, 0 no effect, 100 complete control, read-out: Plant response rating, Foxtail, Giant): 40% | pest or weed control at 125 g/ha ([2]; Setaria faberi, pre-emergence, Preemergence, scale 0 to 100, 0 no effect, 100 complete control, read-out: Plant response rating, Foxtail, Giant): 60% | Morningglory plant response rating (0 to 100 scale) [3, 6]: 100 | pest or weed control at 31 g/ha ([3]; Ipomoea, post-emergence, 31 g ai/ha, postemergence, scale 0 to 100, 0 is no effect, 100 is complete control, read-out: Plant response rating, Morningglory): 98% | pest or weed control at 125 g/ha ([3]; Ipomoea, post-emergence, Postemergence, 125 g ai/ha, scale 0 to 100 (0 no effect, 100 complete control), read-out: Plant response rating, Morningglory): 100% | pest or weed control at 250 g/ha ([3]; Ipomoea, post-emergence, Postemergence, 250 g ai/ha, scale 0 to 100 (0 no effect, 100 complete control), read-out: Plant response rating, Morningglory): 100% | Foxtail, Green plant response rating (0 to 100 scale) [4, 6]: 80 | Foxtail, Green plant response rating [4, 7]: 100 | pest or weed control at 31 g/ha ([4]; Setaria viridis, post-emergence, postemergence, scale 0 to 100, 0 is no effect, 100 is complete control, read-out: Plant response rating, Foxtail, Green): 80% | pest or weed control at 125 g/ha ([4]; Setaria viridis, post-emergence, Postemergence, scale 0 to 100 (0 no effect, 100 complete control), read-out: Plant response rating, Foxtail, Green): 80% | pest or weed control at 250 g/ha ([4]; Setaria viridis, post-emergence, Postemergence, 250 g ai/ha, scale 0 to 100 (0 no effect, 100 complete control), read-out: Plant response rating, Foxtail, Green): 95% | pest or weed control at 31 g/ha ([4]; Setaria viridis, pre-emergence, Preemergence, scale 0 to 100 (0 no effect, 100 complete control), read-out: Plant response rating, Foxtail, Green): 10% | pest or weed control at 62 g/ha ([4]; Setaria viridis, pre-emergence, Preemergence, 62 g ai/ha, scale 0 to 100, 0 no effect, 100 complete control, read-out: Plant response rating, Foxtail, Green): 40% | pest or weed control at 125 g/ha ([4]; Setaria viridis, pre-emergence, Preemergence, scale 0 to 100, 0 no effect, 100 complete control, read-out: Plant response rating, Foxtail, Green): 60% | Kochia plant response rating (0 to 100 scale) (kochia (Kochia scoparia); [6]): 100 | pest or weed control at 31 g/ha (kochia (Kochia scoparia); Bassia scoparia, post-emergence, postemergence, scale 0 to 100, 0 is no effect, 100 is complete control, read-out: Plant response rating, Kochia): 98% | pest or weed control at 125 g/ha (kochia (Kochia scoparia); Bassia scoparia, post-emergence, Postemergence, scale 0 to 100 (0 no effect, 100 complete control), read-out: Plant response rating, Kochia): 100% | pest or weed control at 250 g/ha (kochia (Kochia scoparia); Bassia scoparia, post-emergence, Postemergence, 250 g ai/ha, scale 0 to 100 (0 no effect, 100 complete control), read-out: Plant response rating, Kochia): 100% | pest or weed control at 31 g/ha (kochia (Kochia scoparia); Bassia scoparia, pre-emergence, Preemergence, scale 0 to 100 (0 no effect, 100 complete control), read-out: Plant response rating, Kochia): 80% | pest or weed control at 62 g/ha (kochia (Kochia scoparia); Bassia scoparia, pre-emergence, Preemergence, 62 g ai/ha, scale 0 to 100 (0 no effect, 100 complete control), read-out: Plant response rating, Kochia): 80% | pest or weed control at 125 g/ha (kochia (Kochia scoparia); Bassia scoparia, pre-emergence, Preemergence, scale 0 to 100, 0 no effect, 100 complete control, read-out: Plant response rating, Kochia): 85% | Kochia plant response rating (kochia (Kochia scoparia); [7]): 90 | Wheat plant response rating (0 to 100 scale) [5, 6]: 15 | Wheat plant response rating [5, 7]: 10 | plant injury at 125 g/ha ([5]; Triticum aestivum, post-emergence, Postemergence, 125 g ai/ha, scale 0 to 100 (0 no effect, 100 complete control), read-out: Plant response rating, Wheat): 40% | plant injury at 31 g/ha ([5]; Triticum aestivum, pre-emergence, Preemergence, 31 g ai/ha, scale 0 to 100 (0 no effect, 100 complete control), read-out: Plant response rating, Wheat): 0% | plant injury at 62 g/ha ([5]; Triticum aestivum, pre-emergence, Preemergence, 62 g ai/ha, scale 0 to 100 (0 no effect, 100 complete control), read-out: Plant response rating, Wheat): 0%
